In patent US20220183294A1, “PESTICIDALLY ACTIVE AZOLE AMIDE COMPOUNDS” (SYNGENTA CROP PROTECTION AG, priority 2019, published 2022):

Key:
Type in all cases: in vivo
[1] = system: Chilo suppressalis (Striped rice stemborer); assay: Example B4: Chilo suppressalis (Striped rice stemborer), artificial diet; settings: 144 h, application rate 200 ppm, L2 larvae, 6 days after infestation, read-out: control in at least one of the three categories (mortality, anti-feedant effect, or growth inhibition)
Method: Example B4: Chilo suppressalis (Striped rice stemborer) 24-well microtiter plates with artificial diet were treated with aqueous test solutions prepared from 10′000 ppm DMSO stock solutions by pipetting. After drying, the plates were infested with L2 larvae (6-8 per well). The samples were assessed for mortality, anti-feeding effect, and growth inhibition in comparison to untreated samples 6 days after infestation. Control of Chilo suppressalis by a test sample is given when at least one of the categories mortality, anti-feedant effect, and growth inhibition is higher than the untreated sample.

[2] = system: Plutella xylostella (Diamond back moth); assay: Example B5: Plutella xylostella (Diamond back moth), artificial diet, 24-well; settings: 192 h, application rate 200 ppm, eggs, 8 days after infestation, read-out: control in at least one of the two categories (mortality or growth inhibition)
Method: Example B5: Plutella xylostella (Diamond back moth)
24-well microtiter plates with artificial diet were treated with aqueous test solutions prepared from 10′000 ppm DMSO stock solutions by pipetting. After drying, Plutella eggs were pipetted through a plastic stencil onto a gel blotting paper and the plate was closed with it. The samples were assessed for mortality and growth inhibition in comparison to untreated samples 8 days after infestation.
(§1) The following compounds gave an effect of at least 80% control in at least one of the two categories (mortality or growth inhibition) at an application rate of 200 ppm: […]

[3] = system: Spodoptera littoralis (Egyptian cotton leaf worm); assay: Example B9: Spodoptera littoralis (Egyptian cotton leaf worm), sprayed cotton leaf discs; settings: foliar, 72 h, application rate 200 ppm, L1 larvae, 3 days after infestation, read-out: control in at least one of the three categories (mortality, anti-feedant effect, or growth inhibition)
Method: Example B9: Spodoptera littoralis (Egyptian cotton leaf worm)
Cotton leaf discs were placed onto agar in 24-well microtiter plates and sprayed with aqueous test solutions prepared from 10′000 ppm DMSO stock solutions. After drying the leaf discs were infested with five L1 larvae. The samples were assessed for mortality, anti-feeding effect, and growth inhibition in comparison to untreated samples 3 days after infestation. Control of Spodoptera littoralis by a test sample is given when at least one of the categories mortality, anti-feedant effect, and growth inhibition is higher than the untreated sample.

[4] = system: Diabrotica balteata (Corn root worm); assay: Example B1: Diabrotica balteata (Corn root worm), sprayed maize sprouts; settings: 96 h, application rate 200 ppm, L2 larvae, 4 days after infestation, read-out: control in at least one of the two categories (mortality or growth inhibition)
Method: Example B1: Diabrotica balteata (Corn root worm)
Maize sprouts placed onto an agar layer in 24-well microtiter plates were treated with aqueous test solutions prepared from 10′000 ppm DMSO stock solutions by spraying. After drying, the plates were infested with L2 larvae (6 to 10 per well). The samples were assessed for mortality and growth inhibition in comparison to untreated samples 4 days after infestation.
as §1

CC(NC(=O)c1cc(C(F)(F)F)cc(C(F)(F)C2CC2)c1)c1ncnn1-c1ncc(OCC(F)(F)F)cn1 (centres unmarked) [P20, 3-[cyclopropyl(difluoro)methyl]-N-[1-[2-[5-(2,2,2-trifluoroethoxy)pyrimdin-2-yl]-1,2,4-triazol-3-yl]ethyl]-5-(trifluoromethyl) benzamide]
≥ 80%: percent control (mortality, anti-feedant effect or growth inhibition) at 200 ppm [1] | percent control (mortality or growth inhibition) at 200 ppm [2] | percent control (mortality, anti-feedant effect or growth inhibition) at 200 ppm [3]

CC(NC(=O)c1cc(C(F)(F)F)cc(C2(C#N)CC2)c1)c1ncnn1-c1ccc(OC(F)F)cn1 (centres unmarked) [P24, 3-(1-cyanocyclopropyl)-N-[1-[2-[5-(difluoromethoxy)-2-pyridyl]-1,2,4-triazol-3-yl]ethyl]-5-(trifluoromethyl) benzamide]
≥ 80%: percent control (mortality or growth inhibition) at 200 ppm [4] | percent control (mortality, anti-feedant effect or growth inhibition) at 200 ppm [1] | percent control (mortality or growth inhibition) at 200 ppm [2] | percent control (mortality, anti-feedant effect or growth inhibition) at 200 ppm [3]

CC(NC(=O)c1cc(C(F)(F)F)cc(S(=O)(=O)C(F)(F)F)c1)c1ncnn1-c1ncc(OCC(F)F)cn1 (centres unmarked) [P16, N-[1-[2-[5-(2,2-difluoroethoxy)pyrimidin-2-yl]-1,2,4-triazol-3-yl]ethyl]-3-(trifluoromethyl)-5-(trifluoromethylsulfonyl) benzamide]
≥ 80%: percent control (mortality or growth inhibition) at 200 ppm [4] | percent control (mortality, anti-feedant effect or growth inhibition) at 200 ppm [1] | percent control (mortality or growth inhibition) at 200 ppm [2] | percent control (mortality, anti-feedant effect or growth inhibition) at 200 ppm [3]

CC(NC(=O)c1cc(C(F)(F)F)nc(C2(C#N)CC2)c1)c1ncnn1-c1ccc(OC(F)F)cn1 (centres unmarked) [P17, 2-(1-cyanocyclopropyl)-N-[1-[2-[5-(difluoromethoxy)-2-pyridyl]-1,2,4-triazol-3-yl]ethyl]-6-(trifluoromethyl) pyridine-4-carboxamide]
≥ 80%: percent control (mortality or growth inhibition) at 200 ppm [4] | percent control (mortality, anti-feedant effect or growth inhibition) at 200 ppm [1] | percent control (mortality or growth inhibition) at 200 ppm [2] | percent control (mortality, anti-feedant effect or growth inhibition) at 200 ppm [3]

CC(NC(=O)c1cc(C(F)(F)F)nc(C2(C#N)CC2)c1)c1ncnn1-c1ncc(OCC(F)(F)F)cn1 (centres unmarked) [P30, 2-(1-cyanocyclopropyl)-N-[1-[2-[5-(2,2,2-trifluoroethoxy)pyrimidin-2-yl]-1,2,4-triazol-3-yl]ethyl]-6-(trifluoromethyl) pyridine-4-carboxamide]
≥ 80%: percent control (mortality or growth inhibition) at 200 ppm [2] | percent control (mortality, anti-feedant effect or growth inhibition) at 200 ppm [3]

CC(NC(=O)c1cc(C(F)(F)F)cc(C(F)(F)C2CC2)c1)c1ncnn1-c1ccc(C#N)cn1 (centres unmarked) [P4, N-[1-[2-(5-cyano-2-pyridyl)-1,2,4-triazol-3-yl]ethyl]-3-[cyclopropyl(difluoro)methyl]-5-(trifluoromethyl)benzamide]
≥ 80%: percent control (mortality or growth inhibition) at 200 ppm [4] | percent control (mortality, anti-feedant effect or growth inhibition) at 200 ppm [1] | percent control (mortality or growth inhibition) at 200 ppm [2] | percent control (mortality, anti-feedant effect or growth inhibition) at 200 ppm [3]

CC(NC(=O)c1cc(C2CC2)nc(C(F)(F)F)c1)c1ncnn1-c1ccc(C#N)cn1 (centres unmarked) [P15, N-[1-[2-(5-cyano-2-pyridyl)-1,2,4-triazol-3-yl]ethyl]-2-cyclopropyl-6-(trifluoromethyl)pyridine-4-carboxamide]
≥ 80%: percent control (mortality or growth inhibition) at 200 ppm [4] | percent control (mortality, anti-feedant effect or growth inhibition) at 200 ppm [1] | percent control (mortality or growth inhibition) at 200 ppm [2] | percent control (mortality, anti-feedant effect or growth inhibition) at 200 ppm [3]

CC(NC(=O)c1cc(C2CC2C(F)(F)F)cc(C(F)(F)F)c1)c1ncnn1-c1ccc(C#N)cn1 (centres unmarked) [P13, N-[1-[2-(5-cyano-2-pyridyl)-1,2,4-triazol-3-yl]ethyl]-3-(trifluoromethyl)-5-[2-(trifluoromethyl)cyclopropyl]benzamide]
≥ 80%: percent control (mortality or growth inhibition) at 200 ppm [4] | percent control (mortality, anti-feedant effect or growth inhibition) at 200 ppm [1] | percent control (mortality or growth inhibition) at 200 ppm [2] | percent control (mortality, anti-feedant effect or growth inhibition) at 200 ppm [3]

CC(NC(=O)c1cc(C(F)(F)F)nc(C2(C#N)CC2)c1)c1ncnn1-c1ncc(OCC(F)F)cn1 (centres unmarked) [P10, 2-(1-cyanocyclopropyl)-N-[1-[2-[5-(2,2-difluoroethoxy)pyrimidin-2-yl]-1,2,4-triazol-3-yl]ethyl]-6-(trifluoromethyl) pyridine-4-carboxamide]
≥ 80%: percent control (mortality or growth inhibition) at 200 ppm [4] | percent control (mortality, anti-feedant effect or growth inhibition) at 200 ppm [1] | percent control (mortality or growth inhibition) at 200 ppm [2] | percent control (mortality, anti-feedant effect or growth inhibition) at 200 ppm [3]

CC(NC(=O)c1cc(C(F)(F)F)cc(C2(C#N)CC2)c1)c1ncnn1-c1ncc(OCC(F)F)cn1 (centres unmarked) [P31, 3-(1-cyanocyclopropyl)-N-[1-[2-[5-(2,2-difluoroethoxy)pyrimidin-2-yl]-1,2,4-triazol-3-yl]ethyl]-5-(trifluoromethyl) benzamide]
≥ 80%: percent control (mortality, anti-feedant effect or growth inhibition) at 200 ppm [1] | percent control (mortality or growth inhibition) at 200 ppm [2]

CC(NC(=O)c1cc(C(F)(F)F)cc(C2(C#N)CC2)c1)c1ncnn1-c1ncc(OC(F)F)cn1 (centres unmarked) [P26, 3-(1-cyanocyclopropyl)-N-[1-[2-[5-(difluoromethoxy)pyrimidin-2-yl]-1,2,4-triazol-3-yl]ethyl]-5-(trifluoromethyl) benzamide]
≥ 80%: percent control (mortality, anti-feedant effect or growth inhibition) at 200 ppm [1] | percent control (mortality or growth inhibition) at 200 ppm [2] | percent control (mortality, anti-feedant effect or growth inhibition) at 200 ppm [3]

CC(NC(=O)c1cc(C(F)(F)F)cc(C2(C#N)CC2)c1)c1ncnn1-c1ncc(OCC(F)(F)F)cn1 (centres unmarked) [P25, 3-(1-cyanocyclopropyl)-N-[1-[2-[5-(2,2,2-trifluoroethoxy)pyrimidin-2-yl]-1,2,4-triazol-3-yl]ethyl]-5-(trifluoromethyl) benzamide]
≥ 80%: percent control (mortality, anti-feedant effect or growth inhibition) at 200 ppm [1] | percent control (mortality or growth inhibition) at 200 ppm [2] | percent control (mortality, anti-feedant effect or growth inhibition) at 200 ppm [3]

CC(NC(=O)c1cc(C(F)(F)F)cc(C(F)(F)C2CC2)c1)c1ncnn1-c1ccc(OC(F)F)cn1 (centres unmarked) [P19, 3-[cyclopropyl(difluoro)methyl]-N-[1-[2-[5-(difluoromethoxy)-2-pyridyl]-1,2,4-triazol-3-yl]ethyl]-5-(trifluoromethyl) benzamide]
≥ 80%: percent control (mortality, anti-feedant effect or growth inhibition) at 200 ppm [1] | percent control (mortality or growth inhibition) at 200 ppm [2] | percent control (mortality, anti-feedant effect or growth inhibition) at 200 ppm [3]

CC(NC(=O)c1cc(C(F)(F)F)cc(C2(C#N)CC2)c1)c1ncnn1-c1ccc(C#N)cn1 (centres unmarked) [P18, 3-(1-cyanocyclopropyl)-N-[1-[2-(5-cyano-2-pyridyl)-1,2,4-triazol-3-yl]ethyl]-5-(trifluoromethyl) benzamide]
≥ 80%: percent control (mortality, anti-feedant effect or growth inhibition) at 200 ppm [1] | percent control (mortality or growth inhibition) at 200 ppm [2] | percent control (mortality, anti-feedant effect or growth inhibition) at 200 ppm [3]
